Data set [1] deals with primary cell culture of rat cortical neurons. The experiment in a line: Morphological evaluation of neurite length (MAP2 staining) in primary cultures. Type of data set: cell-based. The conditions noted are these: for Increase respect to control (culture A): neurite length relative to control culture A; for Increase respect to control (culture A) / Increase of average neurite length: overall concentration 10 μM (culture B: 40 ng mL−1 bFGF), 6 days incubation; for Increase of average neurite length: control culture A 280; for Effect on neurite extension/length (in words): overall concentration 10 μM, compared to control culture A. Here is the method:
Eight primary cellular cultures were prepared as described in Abe K et al. “Effects of recombinant human basic fibroblast growth factor and its modified protein CS23 on survival of primary cultured neurons from various regions of fetal rat brain.”, Jpn J Pharmacol 1990, 53 (2): 221-7. All operations were carried out under sterile conditions.
Neuronal cells were separated from cerebral hemispheres of rat fetuses of 18 days (Japan SLC, Inc.) and suspended in 10% FBS/MEM, then seeded at 9000 cells cm^−2 in poly-L-lysine plates.
After 24 hours, the culture medium was replaced with a serum-free medium, specific for the growth of neurons (Neurobasal Medium) supplemented with B27.
After 6 days incubation, the cells of the eight cultures were fixed with 4% formaldehyde.
The eight cultures were then evaluated regarding the length of neurites at the microscopic level. The neurons were subjected to immunohistochemical staining for the microtubule-associated protein-2 (MAP2) according to the histochemical method for the length of neurites, as described in Fukuyama Y et al. “Neurotrophic activity of honokiol on the cultures of fetal rat cortical neurons” Bioorg. Med Chem. Lett 12, 1163-66 (2002). The length of the most extended neurite of the whole cellular body was measured and calculated by using software programs Lumina Vision and Mac-SCOPE, according to the above-mentioned method described in Y. Fukuyama et al. (2002). The morphometric analyses were performed by measuring the length of the longest neurite from each neuron using Lumina Vision and Mac-Scope software (Yoshiyasu Fukuyama et al. 2002).

For data set [2], the system named is symptoms of diabetic polyneuropathy and sciatic pain. The note with it: cited from earlier work.
In data set [3] the test system is cultured rat cortical neurons. The conditions noted are these: primary cultures; cited from earlier work.

Results on 3 compounds are retold here after patent US9642834B2, “Composition comprising alpha-lipoic acid and honokiol for treating neuropathies” (Giellepi S.p.A., priority 2012, dated 2017).

“Also recorded” adds a separate entry of the source.

With `O=C(O)CCCCC1CCSS1` (stereo not drawn) [Culture G, alpha-lipoic acid], in data set [1], the “Increase respect to control (culture A)” value is on record as 1.01, the “Increase of average neurite length” value is reported as 285 (p = ns) μm and the “Effect on neurite extension/length (in words)” value is “stimulated neurite growth in a negligible way”. In addition, in data set [2] (daily doses 600, 1200 and 1800 mg), the “Side effects such as nausea, vomiting and dizziness” value is “dose-dependent increase of the side effects”. For the same compound, the “Daily dose providing the best risk/benefit ratio” value in data set [2] (treatment of symptoms of diabetic polyneuropathy and sciatic pain) is 600 mg.
On to `C=CCc1ccc(O)c(-c2ccc(O)c(CC=C)c2)c1` [Culture H, honokiol], for which, in data set [1], the “Increase respect to control (culture A)” value was determined as 1.02, the “Increase of average neurite length” value is 287 (p = ns) μm and the “Effect on neurite extension/length (in words)” value is “stimulated neurite growth in a negligible way”. The “Neurite growth and neuron survival (in words)” value in data set [3] was “able to promote neurite growth; also recorded: capable of increasing the survival and development of neurons”.
For “Culture B: Human recombinant fibroblast growth factors (bFGF), 40 ng mL−1, supplied by Upstate Biotechnology”, in data set [1], the “Increase respect to control (culture A)” value is reported as 1.05 and the “Increase of average neurite length” value is given as 295 (p = ns) μm.
